What is called EC50 is the concentration at which the effect is half-maximal.

The structures appear in SMILES notation.

T1 sequence (Q9UBS5 15-961 limits assumed): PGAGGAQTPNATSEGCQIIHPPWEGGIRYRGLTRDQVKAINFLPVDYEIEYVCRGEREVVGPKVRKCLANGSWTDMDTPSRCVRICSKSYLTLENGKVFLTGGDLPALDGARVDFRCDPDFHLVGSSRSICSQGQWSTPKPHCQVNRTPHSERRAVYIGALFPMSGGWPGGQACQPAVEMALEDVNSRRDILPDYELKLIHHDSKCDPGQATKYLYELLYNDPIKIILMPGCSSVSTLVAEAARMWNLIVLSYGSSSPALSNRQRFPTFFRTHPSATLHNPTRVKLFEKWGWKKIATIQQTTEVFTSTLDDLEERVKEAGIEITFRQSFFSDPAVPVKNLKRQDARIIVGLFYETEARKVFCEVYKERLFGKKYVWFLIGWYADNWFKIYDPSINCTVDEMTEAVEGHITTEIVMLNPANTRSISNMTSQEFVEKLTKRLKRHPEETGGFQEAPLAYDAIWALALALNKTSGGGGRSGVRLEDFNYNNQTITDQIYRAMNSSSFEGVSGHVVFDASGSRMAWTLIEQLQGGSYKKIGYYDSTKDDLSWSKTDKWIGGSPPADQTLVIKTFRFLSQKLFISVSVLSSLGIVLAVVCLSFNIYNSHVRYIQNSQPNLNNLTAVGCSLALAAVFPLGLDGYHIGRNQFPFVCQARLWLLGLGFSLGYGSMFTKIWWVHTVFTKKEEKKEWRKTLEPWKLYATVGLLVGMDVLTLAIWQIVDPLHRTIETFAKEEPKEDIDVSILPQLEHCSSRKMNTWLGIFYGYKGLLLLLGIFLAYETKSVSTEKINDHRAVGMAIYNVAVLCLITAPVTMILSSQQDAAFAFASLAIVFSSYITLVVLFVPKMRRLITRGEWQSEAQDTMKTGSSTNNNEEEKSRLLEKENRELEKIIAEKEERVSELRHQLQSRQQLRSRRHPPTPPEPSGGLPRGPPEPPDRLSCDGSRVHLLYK
T1 sequence (O75899 42-941): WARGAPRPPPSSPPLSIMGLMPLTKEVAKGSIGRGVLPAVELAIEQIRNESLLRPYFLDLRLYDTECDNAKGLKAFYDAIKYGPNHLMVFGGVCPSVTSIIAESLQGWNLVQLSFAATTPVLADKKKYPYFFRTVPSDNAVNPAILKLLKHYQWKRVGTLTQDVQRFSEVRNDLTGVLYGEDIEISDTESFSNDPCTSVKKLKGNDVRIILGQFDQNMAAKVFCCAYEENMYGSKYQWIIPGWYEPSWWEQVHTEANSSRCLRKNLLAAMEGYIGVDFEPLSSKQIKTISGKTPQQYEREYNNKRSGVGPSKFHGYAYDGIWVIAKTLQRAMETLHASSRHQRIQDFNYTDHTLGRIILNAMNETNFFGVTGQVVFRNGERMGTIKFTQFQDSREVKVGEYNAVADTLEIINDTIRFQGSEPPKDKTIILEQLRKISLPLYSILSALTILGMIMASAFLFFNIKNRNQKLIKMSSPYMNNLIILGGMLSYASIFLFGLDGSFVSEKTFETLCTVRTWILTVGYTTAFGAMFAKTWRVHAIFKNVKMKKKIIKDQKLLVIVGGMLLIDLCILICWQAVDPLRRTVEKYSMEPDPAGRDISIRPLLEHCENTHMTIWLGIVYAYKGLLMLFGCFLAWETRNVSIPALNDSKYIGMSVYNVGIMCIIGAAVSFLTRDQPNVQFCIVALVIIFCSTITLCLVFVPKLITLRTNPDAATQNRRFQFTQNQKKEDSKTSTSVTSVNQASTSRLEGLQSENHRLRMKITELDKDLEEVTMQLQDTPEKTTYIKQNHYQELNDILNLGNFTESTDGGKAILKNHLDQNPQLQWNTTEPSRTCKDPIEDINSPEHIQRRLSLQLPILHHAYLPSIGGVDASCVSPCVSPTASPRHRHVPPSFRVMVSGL

The assay concerns the target T1, GABAB receptor (GABABR1a/GABABR2 heterodimer) (Homo sapiens, UniProt O75899+Q9UBS5).
T1 construct: expressed in transfected cells
The experiment in a line: [35S]-GTPγS binding assay, potency of PAM (GABA dose-response curves with and without test compound). Particulars: potency of the positive allosteric modulator; GABA dose-response in presence of test compound. In kind it is biochemical. From the text:
GABABR1a and GABABR2 were cloned from human brain cDNA and subcloned into pCI-Neo (Promega) and pALTER-1 (Promega), respectively. A GABABR1a-Gαqi5 fusion protein expression vector was constructed using the pCI-Neo-GABABR1a cDNA plasmid and pLEC1-Gαqi5 (Molecular Devices, CA). In order to make the Gαqi5 pertussis toxin insensitive, Cys356 was mutated to Gly using standard PCR methodology with the primers 5′-[…]-3′ (forward) and 5′-GCGGCCG […]-3′ (reverse). The Gαqi5mut cDNA was ligated into the BamHI and NotI sites of pcDNA3.0 (Invitrogen). The GABAB R1a coding sequence was amplified by PCR from pCI-Neo-GABABR1a using the primers, 5′-[…]-3′ (forward) and 5′-[…]-3′ (reverse) and subcloned into the BamHI site of pcDNA3.0-Gαqi5mut.
For generation of a cell line expressing the GABABR1a/GABABR2 heterodimer, GABABR1a plasmid DNA (4 μg) GABABR2 plasmid DNA (4 μg) and lipofectamine (24 μl) were mixed in 5 ml OptiMEM and incubated for 45 minutes at room temperature. The cells were exposed to the transfection medium for 5 hours, which then was replaced with culture medium. The cells were cultured for an additional 10 days before selection agents (300 μg/ml hygromycin and 400 μg/ml geneticin) were added. Twenty-four days after transfection, single cell sorting into 96-well plates by flow cytometry was performed using a FACS Vantage SE (Becton Dickinson, Palo Alto, Calif.). After expansion, the GABAB receptor functional response was tested using the FLIPR assay described below. The clone with the highest functional response was collected, expanded and then subcloned by single cell sorting. The clonal cell line with the highest peak response in the FLIPR was used in the present study.
For generation of a stable cell line expressing GABABR1a-Gαqi5 fusion protein and GABABR2, GABABR1a-Gαqi5mut plasmid DNA (8 μg) GABABR2 plasmid DNA (8 μg) and lipofectamine (24 μl) were mixed in 5 ml OptiMEM and incubated for 45 minutes at room temperature. The cells were exposed to the transfection medium for 5 hours, which then was replaced with culture medium. After forty-eight hours, the cells were detached and seeded in 6 well plates (2000 cells/well) and grown in culture medium supplemented with geneticin (400 μg/ml) and zeocin (250 μg/ml). After 4 days, cells from single colonies were collected and transferred to a 24-well plate. After 10 days, the cell clones were seeded in T-25 flasks and grown for another 16 days before they were tested for GABAB receptor mediated functional response. […] The clonal cell line that gave the highest peak response in the FLIPR was used in the present study.
[^35S]-GTPγS binding assays were performed at 30° C. for 45 min in membrane buffer (100 mM NaCl, 5 mM MgCl2, 1 mM EDTA, 50 mM HEPES, pH 7.4) containing 0.025 μg/μl of membrane protein (prepared from the cell lines described above) with 0.01% bovine serum albumin (fatty acid free), 10 μM GDP, 10 μM DTT and 0.53 nM [^35S]-GTPγS (Amersham-Pharmacia Biotech) in a final volume of 200 μl. Non-specific binding was determined in the presence of 20 μM GTPγS. The reaction was started by the addition of GABA at concentration between 1 mM and 0.1 nM in the presence or absence of the required concentration of PAM. The reaction was terminated by addition of ice-cold wash buffer (50 mM Tris-HCl, 5 mM MgCl2, 50 mM NaCl, pH 7.4) followed by rapid filtration under vacuum through Printed Filtermat A glass fiber filters (Wallac) (0.05% PEI treated) using a Micro 96 Harvester (Skatron Instruments). The filters were dried for 30 min at 50° C., then a paraffin scintillant pad was melted onto the filters and the bound radioactivity was determined using a 1450 Microbeta Trilux (Wallac) scintillation counter.
GABA dose-response curves in the presence and absence of test compounds were constructed using the 4-parameter logistic equation, y=ymax+((ymin−ymax)/1+(x/C)^D), where C=EC50 and D=slope factor.
(GTPγS resists hydrolysis and so accumulates on activated G proteins.)
`CCc1nc2c(c(=O)n(Cc3ccc(Cl)cc3)c(=O)n2CC2COc3ccccc3O2)n1C` (stereo not shown) [Example 24, 1-(4-chlorobenzyl)-3-(2,3-dihydro-1,4-benzodioxin-2-ylmethyl)-8-ethyl-7-methyl-3,7-dihydro-1H-purine-2,6-dione]: the EC50 is 5.1 µM. The result for `CCc1nc2c(c(=O)n(Cc3ccc(Cl)cc3)c(=O)n2CCC(C)(C)C)n1C` [Example 2, 1-(4-Chlorobenzyl)-3-(3,3-dimethylbutyl)-8-ethyl-7-methyl-3,7-dihydro-1H-purine-2,6-dione] reads 1.5 µM. The result for `COc1nc2c(c(=O)n(Cc3ccc(Cl)cc3)c(=O)n2CCCC(F)(F)F)n1C` [Example 81, 1-(4-chlorobenzyl)-8-methoxy-7-methyl-3-(4,4,4-trifluorobutyl)-3,7-dihydro-1H-purine-2,6-dione] reads 11.5 µM; that for `CCc1nc2c(c(=O)n(Cc3ccc(Cl)cc3)c(=O)n2CCCN2CCC3(CC2)OCCO3)n1C` [Example 48, 1-(4-Chlorobenzyl)-3-[3-(1,4-dioxa-8-azaspiro[4.5]dec-8-yl)propyl]-8-ethyl-7-methyl-3,7-dihydro-1H-purine-2,6-dione], 12.1 µM. In the case of `CCCn1c(=O)n(Cc2ccc(Cl)cc2)c(=O)c2c1nc(OC)n2C` [Example 78, 1-(4-Chlorobenzyl)-8-methoxy-7-methyl-3-propyl-3,7-dihydro-1H-purine-2,6-dione] it was 4.5 µM; in that of `CCc1nc2c(c(=O)n(Cc3ccc(Cl)cc3)c(=O)n2C[Si](C)(C)C)n1C` [Example 9, 1-(4-Chlorobenzyl)-8-ethyl-7-methyl-3-[(trimethylsilyl)methyl]-3,7-dihydro-1H-purine-2,6-dione], 2.1 µM. Regarding `CCCn1c(=O)n(Cc2ccc(Cl)cc2Cl)c(=O)c2c1nc(CC)n2C` [Example 60, 1-(2,4-Dichlorobenzyl)-8-ethyl-7-methyl-3-propyl-3,7-dihydro-1H-purine-2,6-dione], the EC50 worked out at 17.2 µM. In the case of `CCCn1c(=O)n(Cc2ccc(Cl)c(Cl)c2)c(=O)c2c1nc(CC)n2C` [Example 57, 1-(3,4-Dichlorobenzyl)-8-ethyl-7-methyl-3-propyl-3,7-dihydro-1H-purine-2,6-dione] it was 2.6 µM; in that of `CCc1nc2c(c(=O)n(Cc3ccc(Cl)cc3)c(=O)n2CC(=O)OC)n1C` [Example 11, Methyl [1-(4-chlorobenzyl)-8-ethyl-7-methyl-2,6-dioxo-1,2,6,7-tetrahydro-3H-purin-3-yl]acetate], 8.5 µM; in that of `CCCn1c(=O)n(Cc2ccc(Cl)cc2)c(=O)c2c1nc(CC)n2C` [Example 54, 1-(4-chlorobenzyl)-8-ethyl-7-methyl-3-propyl-3,7-dihydro-1H-purine-2,6-dione], 5.89 µM. Regarding `CCCn1c(=O)n(Cc2ccc(Cl)cc2)c(=O)c2c1nc(N1CCSCC1)n2C` [Example 88, 1-(4-chlorobenzyl)-7-methyl-3-propyl-8-thiomorpholin-4-yl-3,7-dihydro-1H-purine-2,6-dione], the EC50 is 3.7 µM.

With `CCCn1c(=O)n(Cc2ccc(C(=O)c3ccccc3)cc2)c(=O)c2c1nc(CC)n2C` [Example 68, 1-(4-Benzoylbenzyl)-8-ethyl-7-methyl-3-propyl-3,7-dihydro-1H-purine-2,6-dione], the EC50 is 15.7 µM. Consider `CCc1nc2c(c(=O)n(Cc3ccc(Cl)cc3)c(=O)n2Cc2c(-c3ccccc3)noc2C)n1C` [Example 30, 1-(4-chlorobenzyl)-8-ethyl-7-methyl-3-[(5-methyl-3-phenylisoxazol-4-yl)methyl]-3,7-dihydro-1H-purine-2,6-dione], for which the EC50 was found to be 4.6 µM.

On to `CCc1nc2c(c(=O)n(Cc3ccc(Cl)cc3)c(=O)n2CC2CCCCC2)n1C` [Example 20, 1-(4-Chlorobenzyl)-3-(cyclohexylmethyl)-8-ethyl-7-methyl-3,7-dihydro-1H-purine-2,6-dione], for which the EC50 is 3 µM.

On to `CCc1nc2c(c(=O)n(Cc3ccc(Cl)cc3)c(=O)n2CCCn2ccnc2)n1C` [Example 49, 1-(4-Chlorobenzyl)-8-ethyl-3-[3-(1H-imidazol-1-yl)propyl]-7-methyl-3,7-dihydro-1H-purine-2,6-dione], for which the EC50 came out at 13.4 µM. The result for `CCc1nc2c(c(=O)n(Cc3ccc(Cl)cc3)c(=O)n2CCCS(=O)(=O)C(C)(C)C)n1C` [Example 34, 3-[3-(tert-butylsulfonyl)propyl]-1-(4-chlorobenzyl)-8-ethyl-7-methyl-3,7-dihydro-1H-purine-2,6-dione] reads 11.3 µM.

Turning to `CCCn1c(=O)n(Cc2cnn(-c3ccc(Cl)cc3)c2C(F)(F)F)c(=O)c2c1nc(CC)n2C` [Example 59, 1-{[1-(4-Chlorophenyl)-5-(trifluoromethyl)-1H-pyrazol-4-yl]methyl}-8-ethyl-7-methyl-3-propyl-3,7-dihydro-1H-purine-2,6-dione], the EC50 was 5.9 µM. The result for `CCc1nc2c(c(=O)n(Cc3ccc(Cl)cc3)c(=O)n2Cc2ccc(SC(F)(F)F)cc2)n1C` [Example 25, 1-(4-chlorobenzyl)-8-ethyl-7-methyl-3-{4-[(trifluoromethyl)thio]benzyl}-3,7-dihydro-1H-purine-2,6-dione] reads 5.3 µM; that for `CCc1nc2c(c(=O)n(Cc3ccc(Cl)cc3)c(=O)n2CC(O)C(F)(F)F)n1C` (stereo not shown) [Example 23, 1-(4-chlorobenzyl)-8-ethyl-7-methyl-3-(3,3,3-trifluoro-2-hydroxypropyl)-3,7-dihydro-1H-purine-2,6-dione], 2.1 µM; that for `CCCn1c(=O)n(Cc2ccc(C(F)(F)F)cc2)c(=O)c2c1nc(CC)n2C` [Example 62, 8-Ethyl-7-methyl-3-propyl-1-[4-(trifluoromethyl)benzyl]-3,7-dihydro-1H-purine-2,6-dione], 5.7 µM. The result for `CCCn1c(=O)n(Cc2ccc(Cl)cc2)c(=O)c2c1nc(N(CC)CC)n2C` [Example 89, 1-(4-chlorobenzyl)-8-(diethylamino)-7-methyl-3-propyl-3,7-dihydro-1H-purine-2,6-dione] reads 1.8 µM; that for `CCc1nc2c(c(=O)n(Cc3ccc(Cl)cc3)c(=O)n2Cc2ccc(C(F)(F)F)cc2)n1C` [Example 31, 1-(4-chlorobenzyl)-8-ethyl-7-methyl-3-[4-(trifluoromethyl)benzyl]-3,7-dihydro-1H-purine-2,6-dione], 5.5 µM. In the case of `CCc1nc2c(c(=O)n(Cc3ccc(Cl)cc3)c(=O)n2CCCN2CCN(c3ccccc3)CC2)n1C` [Example 47, 1-(4-Chlorobenzyl)-8-ethyl-7-methyl-3-[3-(4-phenylpiperazin-1-yl)propyl]-3,7-dihydro-1H-purine-2,6-dione] it was 8.7 µM; in that of `CCCn1c(=O)n(Cc2nc3cc(C(F)(F)F)ccc3s2)c(=O)c2c1nc(CC)n2C` [Example 66, 8-Ethyl-7-methyl-3-propyl-1-{[5-(trifluoromethyl)-1,3-benzothiazol-2-yl]methyl}-3,7-dihydro-1H-purine-2,6-dione], 17.3 µM; in that of `CCc1nc2c(c(=O)n(Cc3ccc(Cl)cc3)c(=O)n2Cc2scc(S(=O)(=O)C(C)C)c2Cl)n1C` [Example 39, 1-(4-chlorobenzyl)-3-{[3-chloro-4-(isopropylsulfonyl)-2-thienyl]methyl}-8-ethyl-7-methyl-3,7-dihydro-1H-purine-2,6-dione], 1.8 µM.

Source of the values: patent publication US20090023704A1, “Novel Compounds 737” (ASTRAZENECA AB, priority 2007, published 2009).
